The record followed here is patent US20230137562A1, “TAU AGGREGATION INHIBITORS” (priority 2017, published 2023).

Ends that are not written are not given here. Peptide text beside a SMILES is read from it. TAMRA = tetramethyl rhodamine dye

Sequence of TauRD (P301S)-Nluc and TauRD (P301S)-Cluc split luciferase compliment pair (P10636 561-689 P618S, chain 1 of 2): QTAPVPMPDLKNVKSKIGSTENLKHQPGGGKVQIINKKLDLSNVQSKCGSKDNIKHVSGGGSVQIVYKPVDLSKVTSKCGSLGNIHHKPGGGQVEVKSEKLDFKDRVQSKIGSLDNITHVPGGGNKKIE
Sequence of TauRD (P301S)-Nluc and TauRD (P301S)-Cluc split luciferase compliment pair (P10636 561-689 P618S, chain 2 of 2): as the sequence (P10636 561-689 P618S, chain 1 of 2) above
Sequence of His-Tau40P301L Tau (P10636 other isoform, or with tags, fused parts or gaps limits assumed): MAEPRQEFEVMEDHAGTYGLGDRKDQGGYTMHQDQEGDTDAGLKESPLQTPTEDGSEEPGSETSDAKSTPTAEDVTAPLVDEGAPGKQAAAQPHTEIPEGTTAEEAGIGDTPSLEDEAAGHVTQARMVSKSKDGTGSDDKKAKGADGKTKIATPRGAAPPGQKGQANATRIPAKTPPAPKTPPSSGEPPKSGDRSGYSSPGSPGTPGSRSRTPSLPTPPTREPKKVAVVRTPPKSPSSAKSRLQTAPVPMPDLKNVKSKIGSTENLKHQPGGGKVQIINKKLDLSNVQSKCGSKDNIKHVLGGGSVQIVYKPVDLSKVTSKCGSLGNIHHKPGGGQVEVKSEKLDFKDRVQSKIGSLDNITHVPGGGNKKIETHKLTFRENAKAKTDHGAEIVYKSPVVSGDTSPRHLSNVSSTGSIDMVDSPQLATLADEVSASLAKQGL

One assay has as its target His-Tau40P301L Tau (UniProt P10636-8 1-441). As to the kind of experiment: cell-based or functional assay.
Settings: not given
For {TAMRA}-RRRRRRRRRGGSGGWRLKVRWW [[TAMRA]-RRRRRRRRR-GGSGG-WRLKVRWW], the “IC50 (µM), Tau40 assay-Modified peptides (ThT)” value was 7.3 µM.
{TAMRA}-RRRRRRRRRRGGSGGWRIWIRYW [[TAMRA]-RRRRRRRRRR-GGSGG-WRIWIRYW]: the “IC50 (µM), Tau40 assay-Modified peptides (ThT)” value was 12.6 µM.

Another assay concerns the target TauRD (P301S)-Nluc and TauRD (P301S)-Cluc split luciferase compliment pair (human, UniProt P10636-8 244-372; P10636-8 244-372). As to the kind of experiment: cell-based or functional assay.
Settings: not given
On to RRRRRRRRRGGSGGLFYLRLT [RRRRRRRRR-GGSGG-LFYLRLT], for which the “EC50 (µM), HEK cell assay, split luciferase complementation” value is 9.6 µM.
Same read-out and setting: for {TAMRA}-RRRRRRRRRGGSGGWRLKVRWW [[TAMRA]-RRRRRRRRR-GGSGG-WRLKVRWW] the value was 8.2 µM.
Regarding {TAMRA}-RRRRRRRRRRGGSGGWRIWIRYW [[TAMRA]-RRRRRRRRRR-GGSGG-WRIWIRYW], the “EC50 (µM), HEK cell assay, split luciferase complementation” value was determined as 4.1 µM.

In the next assay the target is T1, Tau40P301L protein (Homo sapiens, UniProt P10636, P618L).
T1 construct: His; made in house; host or cells: E. coli BL21
T1 sequence (P10636 1-441 isoform P10636-8 P301L): as the sequence (P10636 other isoform, or with tags, fused parts or gaps limits assumed) above
As to the kind of experiment: biochemical. The conditions noted are these: IC50 (μM), Tau40 assay. Here is the method: The following describes the experimental method used to evaluate the IC50 of Tau amyloid inhibition by the peptide inhibitors described above. The physical setup of inhibitor peptides in these dose responses is done automatically with an 8-span head on a BioMek3000 liquid handler into Costar optically 96-well clear bottom black plates. Inhibitor peptides are kept frozen at −80° C. in 100% dimethylsulfoxide (DMSO) solution at a concentration of 20 mM and thawed immediately before the assay. The Biomek makes two serial dilutions of a single inhibitor for a duplicate 6-point dose response curve. This is followed by addition a 5×reaction buffer. The final reaction buffer concentration in the assay is 50 mM MES, pH 6.8, 125 mM NaCl, 10 μM Heparin, 50 μM ThT. The Tau substrate is added by a 96-head Multimek liquid handler making a 4:10 dilution of Tau40P301L protein to which DTT is added directly before setting up the assay. The P301 L mutant of tau is associated with features of human tauopathies (Comb et al., supra; Lewis et al., Nature Genetics 25: 402-405 (2000)). The final concentrations of Tau40P301L and DTT in the assay is 2.5 μM and 5 mM, respectively. Amyloid formation is measured by monitoring Thioflavin T (ThT) fluorescence every 10 minutes with excitation and emission wavelengths of 440 and 485 nm using fluorescence plate readers. The assay plates are kept in the plate reader during the whole duration of the assay, and incubated at 37° C. with continuous shaking for 24 hours. Plate reader models Genios and Spectrafluor Plus produced by Tecan are used and data is acquired using Magellan software. The calculation of IC50 is done by an automatic algorithm developed using the R statistical programing language. Briefly, the algorithm uses data exported in excel format from the plate reader to average the cumulative ThT fluorescence for each inhibitor concentration in the 6-point dose response. The IC50 is calculated as the midpoint of a sigmoid curve fitted to the correlation of normalized ThT fluorescence and inhibitor concentration.
For `CC[C@H](C)[C@H](NC(=O)[C@H](CCCNC(=N)N)NC(=O)[C@@H](N)Cc1c[nH]c2ccccc12)C(=O)N[C@@H](Cc1c[nH]c2ccccc12)C(=O)N[C@@H](C)C(=O)N[C@@H](CCCNC(=N)N)C(=O)N[C@@H](Cc1ccc(O)cc1)C(=O)N[C@@H](Cc1c[nH]c2ccccc12)C(=O)O` [compound 163] (H-WRIWARYW-OH), the IC50 worked out at 2.95 µM.
Same read-out and setting: for `CC[C@H](C)[C@H](NC(=O)[C@@H](N)CCCNC(=N)N)C(=O)N[C@@H](CCCNC(=N)N)C(=O)N[C@@H](CC(C)C)C(=O)N[C@@H](Cc1c[nH]c2ccccc12)C(=O)N[C@@H](Cc1ccc(O)cc1)C(=O)N[C@@H](Cc1c[nH]c2ccccc12)C(=O)O` [compound 60] (H-RIRLWYW-OH) the value was 8.01 µM; for `CC[C@H](C)[C@H](NC(=O)[C@H](CCCNC(=N)N)NC(=O)[C@@H](NC(=O)[C@@H](N)Cc1c[nH]c2ccccc12)[C@@H](C)CC)C(=O)N[C@@H](CCCNC(=N)N)C(=O)N[C@@H](Cc1ccc(O)cc1)C(=O)N[C@@H](Cc1c[nH]c2ccccc12)C(=O)O` [compound 152] (H-WIRIRYW-OH), 2.6 µM; for `CC[C@H](C)[C@H](NC(=O)[C@H](CCCNC(=N)N)NC(=O)[C@@H](NC(=O)[C@H](Cc1c[nH]c2ccccc12)NC(=O)[C@@H](N)Cc1c[nH]c2ccccc12)[C@@H](C)CC)C(=O)N[C@@H](CCCNC(=N)N)C(=O)N[C@@H](Cc1ccc(O)cc1)C(=O)N[C@@H](Cc1c[nH]c2ccccc12)C(=O)N[C@@H](CC(C)C)C(=O)O` [compound 65] (H-WWIRIRYWL-OH), 1.31 µM.

The target in a further assay is T2, Ac-VQIINK-NH2 (Homo sapiens, UniProt P10636).
T2 construct: made in house; host or cells: chemical peptide synthesis
As to the kind of experiment: Inhibition of VQIINK aggregation with peptide inhibitors (ThT). Format: biochemical.
Settings: not given
Here is the method: The following describes the experimental method used to evaluate the IC50 of aggregation of VQIINK (SEQ ID NO:220) inhibition by the peptide inhibitors described above. The peptide sequence comprising Ac-VQIINK-NH2 (C-terminal amidated (SEQ ID NO: 220)) is prepared using the peptide synthetic method described above. The Ac-VQIINK-NH2 (SEQ ID NO: 220) is stored at 10 mM in 100% DMSO at −80° C., and an aliquot volume sufficient for a single aggregation assay plate is removed. The stock aggregation buffer (5×) is prepared with the following: 250 mM NaPhosphate (pH 8.0), 125 mM KCl, and 500 micromolar ThioflavinT (ThT). The aggregation assay is conducted with shaking, at room temperature, on a plate reader model FLX-800 by BioTek. Water for primary Ac-VQIINK-NH2 (SEQ ID NO: 220) dissolution is cooled to 4 degrees Celsius (7.245 milliliters). Buffer is added from the 5×stock (40 microliters, final volume in assay plate is 130 microliters, final buffer concentrations 50 millimolar NaPO4 (pH 8.0); 25 milllimolar KCl; and 100 micromolar ThioflavinT). The assay plate is cooled to 4 degrees Celsius. The Ac-VQIINK-NH2 (105 microliters (SEQ ID NO: 220)) is added to the chilled water (final volume of 7.350 milliliters), this is added into a pooled reservoir, and using a 96-channel robotic pipettor, 70 microliters diluted Ac-VQIINK-NH2 (SEQ ID NO: 220) is added to the assay plate to achieve a final concentration of 50 micromolar in a 200 microliter final assay volume (per well). Data is acquired using Magellan software. The calculation of IC50 is done by an automatic algorithm developed using the R statistical programing language. Briefly, the algorithm uses data exported in excel format from the plate reader to average the cumulative ThT fluorescence for each inhibitor concentration in the 6-point dose response. The IC50 is calculated as the midpoint of a sigmoid curve fitted to the correlation of normalized ThT fluorescence and inhibitor concentration.
On to `CC[C@H](C)[C@H](NC(=O)[C@@H](N)CCCCN)C(=O)N[C@@H](CCCNC(=N)N)C(=O)N[C@@H](CC(C)C)C(=O)N[C@@H](Cc1ccc(O)cc1)C(=O)N[C@@H](Cc1c[nH]c2ccccc12)C(=O)N[C@@H](Cc1c[nH]c2ccccc12)C(=O)O` [compound 194] (H-KIRLYWW-OH), for which the IC50 came to 2.86 µM.
Same read-out and setting: next, `CC[C@H](C)[C@H](N)C(=O)N[C@@H](Cc1c[nH]c2ccccc12)C(=O)N[C@H](C(=O)N[C@@H](CCCNC(=N)N)C(=O)N[C@@H](CC(C)C)C(=O)N[C@@H](Cc1c[nH]c2ccccc12)C(=O)O)[C@@H](C)CC` [compound 50] (H-IWIRLW-OH): 2.12 µM; `CC[C@H](C)[C@H](NC(=O)[C@H](C)NC(=O)[C@@H](N)Cc1c[nH]c2ccccc12)C(=O)N[C@@H](CCCNC(=N)N)C(=O)N[C@H](C(=O)N[C@@H](CCCNC(=N)N)C(=O)N[C@@H](Cc1c[nH]c2ccccc12)C(=O)O)[C@@H](C)CC` [compound 124] (H-WAIRIRW-OH): 1.94 µM.
Molecule `CC[C@H](C)[C@H](NC(=O)[C@H](CCCNC(=N)N)NC(=O)[C@@H](NC(=O)[C@H](CCCNC(=N)N)NC(=O)[C@@H](N)CC(C)C)[C@@H](C)CC)C(=O)N[C@@H](CCCNC(=N)N)C(=O)N[C@@H](Cc1c[nH]c2ccccc12)C(=O)O` [compound 139] (H-LRIRIRW-OH) gave an IC50 of 4.31 µM.
With `CC[C@H](C)[C@H](NC(=O)[C@H](CCCNC(=N)N)NC(=O)[C@@H](NC(=O)[C@@H](N)Cc1c[nH]c2ccccc12)[C@@H](C)CC)C(=O)N[C@@H](CCCNC(=N)N)C(=O)N[C@@H](Cc1ccc(O)cc1)C(=O)N[C@@H](Cc1c[nH]c2ccccc12)C(=O)O` [compound 152] (H-WIRIRYW-OH), the IC50 was found to be 6.02 µM.
The same measure, in the same setting: for `CC[C@H](C)[C@H](NC(=O)[C@H](CCCNC(=N)N)NC(=O)[C@@H](N)Cc1c[nH]c2ccccc12)C(=O)N[C@@H](Cc1c[nH]c2ccccc12)C(=O)N[C@@H](CC(C)C)C(=O)N[C@@H](CCCNC(=N)N)C(=O)N[C@@H](Cc1ccc(O)cc1)C(=O)N[C@@H](Cc1c[nH]c2ccccc12)C(=O)O` [compound 17] (H-WRIWLRYW-OH) the value was 2.32 µM; for `CC[C@H](C)[C@H](NC(=O)[C@H](Cc1ccccc1)NC(=O)[C@@H](NC(=O)[C@H](CCCNC(=N)N)NC(=O)[C@@H](N)Cc1c[nH]c2ccccc12)[C@@H](C)CC)C(=O)N[C@@H](CCCNC(=N)N)C(=O)N[C@@H](Cc1c[nH]c2ccccc12)C(=O)O` [compound 136] (H-WRIFIRW-OH), 9.13 µM; for `CC[C@H](C)[C@H](NC(=O)[C@H](CCC(N)=O)NC(=O)[C@@H](NC(=O)[C@H](CCCNC(=N)N)NC(=O)[C@@H](N)Cc1c[nH]c2ccccc12)[C@@H](C)CC)C(=O)N[C@@H](CCCNC(=N)N)C(=O)N[C@@H](Cc1c[nH]c2ccccc12)C(=O)O` [compound 69] (H-WRIQIRW-OH), 2.17 µM.
The same measure, in the same setting: next, `CC[C@H](C)[C@H](NC(=O)[C@H](Cc1c[nH]c2ccccc12)NC(=O)[C@@H](NC(=O)[C@H](CCCNC(=N)N)NC(=O)[C@@H](N)Cc1c[nH]c2ccccc12)[C@@H](C)CC)C(=O)N[C@@H](CCCNC(=N)N)C(=O)N[C@@H](CC(C)C)C(=O)N[C@@H](Cc1c[nH]c2ccccc12)C(=O)O` [compound 202] (H-WRIWIRLW-OH): 3.97 µM; `CC[C@H](C)[C@H](NC(=O)[C@H](CCCNC(=N)N)NC(=O)[C@@H](NC(=O)[C@@H](N)CCCNC(=N)N)[C@@H](C)CC)C(=O)N[C@@H](Cc1c[nH]c2ccccc12)C(=O)N[C@@H](CC(C)C)C(=O)N[C@@H](Cc1c[nH]c2ccccc12)C(=O)O` [compound 26] (H-RIRIWLW-OH): 1.93 µM; `CC[C@H](C)[C@H](NC(=O)[C@H](CCCNC(=N)N)NC(=O)[C@@H](NC(=O)[C@H](Cc1c[nH]c2ccccc12)NC(=O)[C@@H](N)Cc1c[nH]c2ccccc12)[C@@H](C)CC)C(=O)N[C@@H](CCCNC(=N)N)C(=O)N[C@@H](Cc1ccc(O)cc1)C(=O)N[C@@H](Cc1c[nH]c2ccccc12)C(=O)N[C@@H](CC(C)C)C(=O)O` [compound 65] (H-WWIRIRYWL-OH): 4.88 µM.
Still for that read-out and setting: next, `CC[C@H](C)[C@H](NC(=O)[C@H](Cc1c[nH]c2ccccc12)NC(=O)[C@@H](NC(=O)[C@H](CCCNC(=N)N)NC(=O)[C@@H](N)CC(C)C)[C@@H](C)CC)C(=O)N[C@@H](CCCNC(=N)N)C(=O)N[C@@H](Cc1ccc(O)cc1)C(=O)N[C@@H](CC(C)C)C(=O)O` [compound 155] (H-LRIWIRYL-OH): 1.74 µM; `CC[C@H](C)[C@H](N)C(=O)N[C@@H](Cc1c[nH]c2ccccc12)C(=O)N[C@H](C(=O)N[C@@H](CCCNC(=N)N)C(=O)N[C@@H](Cc1ccc(O)cc1)C(=O)N[C@@H](Cc1c[nH]c2ccccc12)C(=O)O)[C@@H](C)CC` [compound 180] (H-IWIRYW-OH): 5.43 µM.
